Measurements published in PubChem BioAssay AID1241 (SRMLSC, 2008).

experiment: compounds inducing NF-kB luciferase expression – cell-based, SH-SY5Y, dose response (AID 1241); settings: SH-SY5Y NF-kB promoter luciferase reporter, fold induction

Structure (SMILES)	EC50
CCOc1ccc2nc(NC(=O)Nc3cccs3)sc2c1	1.68 µM
Fc1ccccc1Cn1nnc(-c2ccc3c(c2)OCO3)n1	8.43 µM
O=C(Nc1ccccc1)Nc1nc2ccccc2s1	27.2 µM
COc1ccc(/C=N/N=C(\N)c2nonc2N)cc1	0.272 µM
O=C(Nc1cccc(O)c1)c1noc2c1CCc1ccccc1-2	0.426 µM
CCN(CC)c1ccc(NC(=O)c2ccc(Br)o2)cc1	23.9 µM
C(=N\Nc1nc2ccccc2s1)/c1cccs1	0.887 µM
Cc1ccc2nc(-c3sc4nc(C)ccc4c3N)[nH]c2c1	0.765 µM
CN(c1ccccc1)c1ccc(/C=N/N2CCOCC2)cc1	6.77 µM
Oc1ccc(-c2nnc(-c3ccc(O)cc3)nn2)cc1	5.89 µM
O=C(Nc1ccc(Cl)cc1)N1CCC(c2ccccc2)C1 (stereo unspecified)	10.6 µM
CN1/C(=C\C(=O)c2cccs2)Sc2ccccc21	1.28 µM
COc1ccc(/C=C2\SC(=O)N(CCNC(=O)C3CC4C=CC3C4)C2=O)cc1 (stereo unspecified)	4.14 µM
c1cn2cc(-c3ccc4c(c3)OCO4)nc2s1	1.86 µM
Nc1cccc(-c2cn3cc(C(F)(F)F)cc(Cl)c3n2)c1	0.682 µM
COc1cccc(-c2nc3cc(C)ccc3o2)c1	1.05 µM
c1ccc(CCNc2ncnc3c2cnn3-c2ccccc2)cc1	27.4 µM
Cc1cccc(-n2ncc3c(NC4CCCCC4)ncnc32)c1	2.33 µM
COc1ccc(-c2nc3ccc([N+](=O)[O-])cc3[nH]2)cc1	1.66 µM
Brc1ccccc1/C=N/Nc1ccc2ccccc2n1	5.5 µM
COc1ccc(-c2csc(-c3ccccc3)n2)c(OC)c1	6.74 µM
Nc1nn(-c2ccccc2)c(N)c1N=Nc1ccccc1F	1.01 µM
C/C(=N\Nc1nc2ccccc2[nH]1)c1cccs1	2.8 µM

Structure (SMILES)	EC50
COc1cc(OC)cc(-c2nc3cc(C)ccc3o2)c1	29.3 µM
O=C(NCCSc1ccccc1)c1ccc(Br)cc1	1.34 µM
O=C(Nc1ccc2c(c1)OCCO2)NC1CCCCC1	18.2 µM
Oc1ccc(CN2CCN(Cc3ccccc3)CC2)c2cccnc12	5.24 µM
O=C(Nc1ccc2oc(-c3ccccc3F)nc2c1)c1ncn[nH]1	2.11 µM
COc1ccc(-c2cn3cccc(C)c3n2)cc1F	22.4 µM
Cc1ccccc1-c1noc(-c2ccc(O)cc2)n1	6.21 µM
Nc1nc(-c2cccnc2)nc2sc3c(c12)CCCC3	6.84 µM
CC(=O)c1c(C)[nH]c(C(=O)Nc2ccc3c(c2)OCCO3)c1C	5.26 µM
CC(C)c1cc(C(=O)Nc2ccc3c(c2)OCO3)no1	3.28 µM
Cc1cc(C)c[n+](-c2nc3ccccc3nc2C(=C=[N-])C#N)c1	28 µM
COc1ccccc1N1CCN(c2ccc(-c3ccccc3)nn2)CC1	0.718 µM
COC(=O)CSc1nc2cc(C)ccc2cc1C#N	6.53 µM
O=C(/C=C/c1ccccc1[N+](=O)[O-])Nc1ccccc1	10.4 µM
Cc1occc1C(=O)Nc1cccc2ccccc12	4.62 µM
O=C(Nc1ccc(OC(F)F)c(Cl)c1)c1ccccn1	6.28 µM
Cc1ccc(NC(=O)N2CCc3ccccc32)cc1C	0.361 µM
Cc1ccsc1/C=N/Nc1nc2ccccc2s1	0.803 µM
COc1ccc(-c2csc(Nc3ccccc3)n2)cc1	2.49 µM
COc1cc(SC)ccc1C(=O)Nc1ccc2c(c1)OCO2	1.29 µM
CC(=O)c1cccc(N/C=C\C(=O)c2ccc(C)cc2)c1	0.904 µM
CCCCCCCOc1ccc(OC(=O)c2cccnc2)cc1	0.161 µM
CSc1ccc(/C=N/Nc2cccc(C(=O)O)c2)cc1	3.43 µM

Structure (SMILES)	EC50
Cc1ccccc1C(=O)O/N=C1\CCS(=O)(=O)c2sccc21	3.87 µM
O=C(NCCSc1ccccn1)c1ccc(Cl)cc1	2.7 µM
Cc1ccc(C(=O)/C=C/Nc2cccc(O)c2)cc1	0.559 µM
Cc1ccc(NC(=O)c2ccccn2)c(Br)c1	18.9 µM
Nc1nn(-c2ccccc2)c(N)c1N=Nc1ccc2c(c1)OCO2	1.6 µM
CC(C)CC(=O)N/C(N)=N/c1nc2ccccc2s1	0.762 µM
COc1ccc(C(=O)N=c2sc3ccccc3n2C)cc1	6.41 µM
CC(=O)Nc1cccc(-c2csc(Nc3ccccn3)n2)c1	2.67 µM
N#C/C(=N\Nc1ccccc1[N+](=O)[O-])C(=N)N1CCCCC1	6.94 µM
CCOC(=O)C1=C(C)n2c(s/c(=C/c3cccc([N+](=O)[O-])c3)c2=O)=NC1c1ccc(O)c(OC)c1 (stereo unspecified)	2.1 µM
O=C(Nc1ccc2c(c1)OCO2)c1ccc(Br)s1	4.22 µM
O=C(c1ccccc1)c1cnc(Nc2ccccc2Cl)s1	7.97 µM
Cc1ccc(NC(=O)c2ccccc2O)cc1	3.23 µM
COc1ccc2nc(SCC(C)=O)c(C#N)cc2c1	1.9 µM
CCN(CC)c1ccc(/C=N/NC(=O)c2ccco2)cc1	4.28 µM
Clc1ccc(-c2nc3n(n2)Cc2ccccc2-3)cc1	0.343 µM
CCOC(=O)CSc1nc2cc(OC)ccc2cc1C#N	0.144 µM
CSc1ccc(/C=C/c2ccc3cccc(O)c3n2)cc1	2.49 µM
CN(c1ccc(O)cc1)c1nc(-c2cccs2)cs1	3.86 µM
Cc1ccc(NC(=O)/C(Cl)=C/c2ccccc2)cc1C	2.96 µM
Clc1ccc(OCc2nc(-c3ccncc3)no2)c(Cl)c1	1.12 µM
O=C(Nc1cnc2ccccc2c1)c1ccco1	1.39 µM
COc1ccc(-c2csc(NCc3ccco3)n2)cc1	3.7 µM

Structure (SMILES)	EC50
Cc1cccc(-c2cc3c(nn2)-c2ccccc2C3=O)c1	2.6 µM
Cc1cc(C=C2C(=O)c3ccccc3C2=O)c(C)n1C	2.79 µM
COc1ccc(Nc2nc(-c3cccs3)cs2)c(OC)c1	2.33 µM
CCSc1ccc(-c2ccc(C)cc2)nn1	0.69 µM
Cc1ccc2nc(-c3ccc(NC(=O)COC(=O)c4ccc(Br)o4)cc3)sc2c1	0.485 µM
COc1ccc2c(c1)OC/C(=C/c1cccs1)C2=O	5.52 µM
Cc1ccc(Nc2nc(C3CC3)cs2)cc1	1.82 µM
COc1ccc2c(=O)c(-c3nc(C)cs3)coc2c1	1.08 µM
O=C(/C=C/Nc1ccccc1)c1ccccc1	< 0.059 µM
Cc1ccc(C(=O)c2sc3nsc(C)c3c2N)cc1	2 µM
CSc1ccc(/C=C/C(=O)Nc2ccccc2)cc1	0.242 µM
O=C(Nc1nc2c(s1)CCCC2)c1cccs1	1.07 µM
COc1cc(SC)ccc1C(=O)Nc1ccc(C)cc1	3.05 µM
CCOC(=O)c1sc(NC(=O)c2ccccc2)cc1C	5.74 µM
Cc1ccc(C)c(NC(=S)c2ccccn2)c1	6.69 µM
Cc1ccc(-c2noc(-c3ccccc3F)n2)cc1	6.83 µM
C=CCNc1oc(/C=C/c2ccccc2)nc1C#N	27 µM
Nc1cccn2c(-c3ccc(Cl)cc3)cnc12	3.63 µM
Clc1ccccc1Nc1nc(-c2cccnc2)cs1	1.86 µM
Cc1csc(NC(=O)c2ccc(C)c([N+](=O)[O-])c2)n1	2.12 µM
COc1ccc2c(c1)CC/C2=N\OC(=O)c1cccc(C)c1	2.06 µM
Cc1ccc(C(=O)Nc2ccc3c(c2)CCC3)cc1	0.158 µM
O=C(Nc1ccc(Cl)cc1)C1=Cc2ccccc2OC1	2.23 µM

Structure (SMILES)	EC50
COc1ccc2nc(Nc3ccccc3OC)sc2c1	2.24 µM
Fc1c(F)c(F)c(N/N=C/c2c[nH]c3ccccc23)c(F)c1F	3.86 µM
O=C(Nc1ccn(Cc2ccccc2)n1)c1cccc(F)c1	15.1 µM
CC(=O)Nc1ccc2oc(-c3cc(F)c(F)cc3Cl)nc2c1	0.817 µM
O=[N+]([O-])c1ccc(C2Oc3ccccc3C3CC(c4ccccc4)=NN32)s1 (stereo unspecified)	12.2 µM
Cc1ccc(/C=C/c2nc3ccccc3[nH]2)o1	2.06 µM
O=C(Nc1nc2c(s1)CCCC2)c1ccc(Br)o1	1.29 µM
O=c1c2ccccc2cnn1-c1ccc(Br)cc1	10.2 µM
COc1cc(SC)ccc1C(=O)NCCOc1ccccc1Cl	15.5 µM
c1ccc2sc(NN=C3CCCC3)nc2c1	5.21 µM
Cc1ccc(-n2nnc(-c3cccnc3Cl)n2)cc1	4.75 µM
N#CC1=C2SC=C(c3ccc(Br)cc3)N2CCCC1=O	19.4 µM
O=C(Nc1ccc2c(c1)OCCO2)Nc1ccc2c(c1)OCO2	0.114 µM
Cc1ccc(/C=C/C(=O)N2CCc3ccccc32)o1	1.33 µM
c1ccc(-c2ccc(-c3nc(-c4ccncc4)no3)cc2)cc1	0.636 µM
Nc1ccc(/C=C/C(=O)c2cccs2)cc1	8.72 µM
Clc1ccc(Nc2nc(-c3cccs3)cs2)nc1	0.686 µM
Oc1ccc(F)cc1-c1cc(-c2ccc3c(c2)OCCO3)n[nH]1	1.01 µM
Cc1ccc2nc(-c3ccc(NC(=O)CNC4CC4)cc3)sc2c1	1.69 µM
Cc1ccc(-c2nc3cc(Cl)ccc3o2)cc1	1.75 µM
COc1ccc(-c2cn3cc(C)ccc3n2)cc1Br	0.327 µM
CCCCOc1ccc(-c2csc(N)n2)cc1[N+](=O)[O-]	14.1 µM
Cc1noc(/C=C/Nc2ccc(F)cc2F)c1[N+](=O)[O-]	2.36 µM

Structure (SMILES)	EC50
O=C(O)c1ccc2nc(-c3ccccc3)sc2c1	1.84 µM
CCC(=O)Nc1nc(-c2ccc3c(c2)OCCO3)cs1	4.54 µM
O=[N+]([O-])c1cc(Cl)ccc1-c1nc(-c2ccccc2)no1	3.2 µM
C=CCNc1ncnc2c1cnn2-c1ccc(Cl)cc1	1.82 µM
Cc1ccc(NC(=O)COc2ccccc2[N+](=O)[O-])nc1	18.2 µM
Cc1ccc(-c2nnc(-c3ccccc3)o2)cc1	3.44 µM
O=C(N/N=C/C(Br)=C\c1ccccc1)c1n[nH]c2c1CCC2	1.09 µM
CC(=O)Nc1cccc(-c2csc(Nc3ccc(Cl)cn3)n2)c1	2.2 µM
Cc1ccc(/C=C2\Sc3ccccc3C2=O)s1	5.98 µM
CC(=O)c1sc(N/N=C\c2ccccc2O)nc1C	5.53 µM
Fc1ccccc1-c1nc(-c2ccccc2)no1	4 µM
Fc1ccc(-c2cnn3c(-c4cccs4)ccnc23)cc1	0.532 µM
Cc1ccc(N/C=C(/C#N)c2ccsc2)cc1C	6.87 µM
O=C(/C=C/c1ccc(Cl)cc1Cl)Nc1cccc(S(=O)(=O)NC2=NCCC2)c1	1.3 µM
CN(c1ccc(O)cc1)c1nc(-c2ccccc2)cs1	1.02 µM
Cn1/c(=N/N=C/c2ccccn2)sc2ccccc21	6.33 µM
Cc1cccc(Nc2nc3ccccc3s2)c1C	4.27 µM
Nc1ccc(-c2nc3ccc(C(=O)O)cc3s2)cc1	0.146 µM
O=C(COc1ccc(CO)cc1Cl)Nc1ccc(F)cc1	1.6 µM
c1ccc2c(c1)nnn1c3ccccc3nc21	0.346 µM
O=C(Nc1nc2ccccc2s1)c1ccc(F)cc1	1.2 µM
